Data on two compounds can be found in US8680120B2, “Indole derivative or pharmaceutically acceptable salt thereof” (Kissei Pharmaceutical Co., Ltd., priority 2009, dated 2014).

Assay [1] has as its target rat EP1 receptor (Rattus norvegicus (Rat), UniProt P70597). Briefly: Test for confirmation of EP1 receptor antagonism: inhibition of the prostaglandin E2-induced increase in intracellular calcium concentration in rat EP1 receptor-expressing COS-1 cells. Type of assay: cell-based. As to conditions: Method A: Fluo-4 NW Calcium Assay Kit, FlexStation; prostaglandin E2 10 nM; rat EP1 receptor-expressing COS-1 cells. As for the experimental part:
(1) Preparation of Rat EP1 Expression Vector
Using Rat Kidney BD Marathon-Ready cDNA (Nippon Becton Dickinson Company, Ltd.) as a template, a forward primer shown in SEQ ID NO. 1, and a reverse primer shown in SEQ ID NO. 2, a first run of PCR was carried out using KOD-Plus-Ver 2.0 (Toyobo Co., Ltd.). Further, using this amplification product as a template, a forward primer shown in SEQ ID NO. 3, and a reverse primer shown in SEQ ID NO. 4, a second run of PCR was carried out in the same manner. The amplification product obtained by the second run of PCR was incorporated into a vector (pcDNA3.1 D/V5-His-TOPO (registered trademark), Invitrogen Japan K. K.). By a conventional method, the vector containing this amplification product was introduced to E. coli (One Shot TOP10 Competent Cells, Invitrogen Corporation) to transform. This transformed E. coli was cultured in an LB agar medium for one day. After the culture, colonies were selected and cultured in an LB liquid medium containing 50 μg/mL of ampicillin. After the culture, the vector was purified using a QIAprep Spin Miniprep Kit (Qiagen K. K.). The base sequence of the insertion site of this vector (SEQ ID NO. 5) was compared with the rat EP1 base sequence (Ptger1) registered as an accession number NM_013100 in well-known database (NCBI), and as a result, they all matched except for a single base. Further, the amino acid sequence translated by the base sequence completely matched the amino acid sequence of the rat EP1 receptor registered as an NCBI accession number NP_037232. Therefore, it was confirmed that the cloned gene sequence was a base sequence of the rat EP1 receptor and the obtained amino acid sequence was that of the rat EP1 receptor. The pcDNA3.1 D/V5-His-TOPO (registered trademark) to which the nucleic acid shown in SEQ ID NO. 5 had been inserted was taken as a rat EP1-expressing vector.
(2) Preparation of Rat EP1 Receptor-Expressing Cells
COS-1 cells (Dainippon Sumitomo Pharma Co., Ltd.) were cultured until it reached confluence in an incubator at 37° C. under a 5% CO2 gas condition, using a D-MEM liquid medium (high glucose and L-glutamine contained, Invitrogen Corporation) to which a penicillin-streptomycin solution (Invitrogen Corporation, final concentration: 100 U/mL as benzylpenicillin; 100 μg/mL as streptomycin) as an antibiotic, MEM nonessential amino acids (Invitrogen Corporation, final Concentration: 0.1 mM), and fetal calf serum (Sanko Junyaku Co., Ltd., final concentration: 10%) were added.
The cells that had reached confluence were stripped with 0.05% trypsin/0.53 mM EDTA 4Na (Invitrogen Japan K. K.) and resuspended in the liquid medium. The resuspended cells were diluted and cultured in the liquid medium at a spread ratio from 1:4 to 1:8.
The cells that had reached confluence were stripped with 0.05% trypsin/0.53 mM EDTA.4Na, and resuspended in a D-MEM liquid medium (high glucose and L-glutamine contained, Invitrogen Corporation) to which an MEM nonessential amino acid (final concentration: 0.1 mM) and fetal calf serum (final concentration: 10%) were added. In each well of a Poly D-lysine-coated 96-well microplate (BD BioCoat (registered trademark), Nippon Becton Dickinson Company, Ltd.), this resuspended cell suspension culture was prepared to be 5×10^4 cells/well in 100 μL of the liquid medium, and seeded thereon. After seeding, the cells were cultured in an incubator at 37° C. under a 5% CO2 gas condition. At a point when the cells for introduction of a rat EP1-expressing vector were adhered (about 2 hours after seeding), introduction of the rat EP1-expressing vector was carried out in the following order.
For introduction of the rat EP1-expressing vector, Lipofectamine 2000 (Invitrogen Japan K. K.) was used. […]

Assay [2] has as its system Female SD rats. Description: Inhibitory effect of compound on sulprostone-induced bladder contraction. The conditions noted are these: sulprostone 0.3 mg/kg subcutaneously, urethane-anesthetized female SD rats; for Bladder Contraction Inhibition Rate (%) 15 Minutes: 15 minutes after test agent 1.0 mg/kg intravenously; for Bladder Contraction Inhibition Rate (%) 60 Minutes: 60 minutes after test agent 1.0 mg/kg intravenously. Type of assay: in vivo, rat. On the procedure:
Female SD rats were used. Under urethane anesthesia (1.25 g/kg, administered subcutaneously), a tracheal cannula (Size 8, HIBIKI) and a femoral vein cannula for administration (23 G needle-equipped PE50) were inserted thereinto. The bladder cannula (PE50) was inserted from the bladder apex. The bladder cannula was connected to a three-way stopcock, and then, one was connected to a pressure transducer and the other was connected to a syringe filled with saline. Saline was injected to the bladder at an injection rate of 3.6 mL/hour and the bladder contraction pressure was recorded at the time of injection with a recorder (RECTI-HORITZ-8K, NEC Corporation). After 10 minutes from stabilization of the bladder contraction pressure during urination, sulprostone was administered subcutaneously (0.3 mg/kg). Then, at the time point when the bladder contraction pressure became constant, a test agent was administered intravenously (1.0 mg/kg). An average bladder contraction pressure during the 10 minutes period before administration of sulprostone was taken as a baseline (0%). Further, an average bladder contraction pressure during the 10 minutes period before administration of the test agent was taken as a maximum bladder contraction pressure (100%). The average bladder contraction pressures were measured during 5 minutes before and after at 15 minutes and 60 minutes from administration of the test agent. The ratio of this measured value to the maximum bladder contraction pressure was calculated by the following equation and taken as an average bladder contraction rate after administration of the test agent: (Average Bladder Contraction Rate after Administration of Test Agent (%))=(Average Bladder Contraction Pressure after Administration of Test Agent)/(Maximum Bladder Contraction Pressure). In addition, the difference between the maximum bladder contraction rate (100%) and the average bladder contraction rate (%) after administration of the test agent was calculated by the following equation and taken as a bladder contraction inhibition rate of the test agent: (Bladder Contraction Inhibition Rate)=100%−(Average Bladder Contraction Rate after Administration of Test Agent (%)).

Sequence of rat EP1 receptor (P70597 whole entry): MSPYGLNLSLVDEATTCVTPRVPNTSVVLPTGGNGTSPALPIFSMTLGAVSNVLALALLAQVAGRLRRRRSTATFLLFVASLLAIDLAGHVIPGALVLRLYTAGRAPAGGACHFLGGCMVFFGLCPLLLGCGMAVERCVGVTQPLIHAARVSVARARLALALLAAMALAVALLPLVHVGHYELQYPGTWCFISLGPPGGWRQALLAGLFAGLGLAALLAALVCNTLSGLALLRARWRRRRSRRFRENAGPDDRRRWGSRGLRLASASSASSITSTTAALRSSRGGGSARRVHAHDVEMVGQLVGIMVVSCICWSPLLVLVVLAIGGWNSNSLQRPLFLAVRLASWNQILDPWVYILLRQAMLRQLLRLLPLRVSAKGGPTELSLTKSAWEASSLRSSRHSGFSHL

With `COc1ccc2c(c1)cc(-c1ccccc1)n2Cc1cccc(C(=O)O)n1` [Example 9-21, 6-(5-methoxy-2-phenylindol-1-ylmethyl)pyridine-2-carboxylic acid], the IC50 in assay [1] is 13 nM. For the same compound, in assay [2], the “Bladder Contraction Inhibition Rate (%) 15 Minutes” value was 94.5% and the “Bladder Contraction Inhibition Rate (%) 60 Minutes” value turned out to be 82.8%.
`COc1cc2cc(-c3ccccc3)n(Cc3cccc(C(=O)O)n3)c2cc1F` [Example 16-15]: in assay [2], the “Bladder Contraction Inhibition Rate (%) 15 Minutes” value was determined as 85.0% and the “Bladder Contraction Inhibition Rate (%) 60 Minutes” value is 54.9%.

By IC50 is commonly meant the point on the concentration scale where inhibition reaches its midpoint.
